One block for each substance: values may come before it. Where no end group is shown, it is not given here.
How the values were obtained:
H-2D^d/TAPBPR complex = H-2D^d/TAPBPR complex (Mus musculus, UniProt P01900)
H-2D^d = H-2D^d (Mus musculus, UniProt P01900); settings: cited from earlier work
H-2L^d/TAPBPR complex = H-2L^d/TAPBPR complex (Mus musculus, UniProt P01897); test: SEC TAPBPR binding with LC-MS peptide occupancy; settings: QL9 with 10 mM Gly-Phe dipeptide
[1] = Nano differential scanning fluorimetry (nanoDSF); assay type: physicochemical; settings: FIG. 18B
Method: 10 uL of each sample was loaded on the Prometheus NT.48 instrument (NanoTemper) using the high sensitivity capillaries. NanoDSF measurements are performed using a temperature ramp rate of 1° C./min from 25° C. to 95° C. and an LED intensity of 20%. Data is analyzed using the PR Control software (NanoTemper). Melting temperatures (Tm values) correspond to the inflection points of the first derivative of the 330/350 nm fluorescence ratio. Experiments were performed in duplicates and the shaded areas (FIG. 18B) are representative of the error.

Substance: GPGRAFVTI [gP18-I10]
peptide occupancy in the presence of TAPBPR (H-2D^d/TAPBPR complex): dissociates in the presence of TAPBPR
increase in the peptide off-rate relative to full-length P18-I10 (H-2D^d): 100 fold

peptide occupancy in the presence of TAPBPR (H-2L^d/TAPBPR complex): remained bound
Substance: _PNVNIHNF (not fully specified (N-terminus); printed as _PNVNIHNF) [gp29]

Substance: TAPBPR: TAPasin Binding Protein Related chaperone, recombinant luminal domain
Tm (nanoDSF inflection point) [1]: 52.5 °C

Substance: QLSPFPFDL [QL9, reference compound]
peptide occupancy in the presence of TAPBPR (H-2L^d/TAPBPR complex): could obtain empty H-2L^d:TAPBPR complexes

— patent publication US12630606B2, “Peptide deficient-MHC class I/chaperone compositions and methods” (priority 2018, dated 2026)
